How the values were obtained:
Assay type in all cases: cell-based
NIH/3T3 cells = test: Detection of cilia (acetylated tubulin staining)
Method: Supplementary Figure S6 (related to Figure 5). Characterization of compound 7l (Rhonin).
(a) GLI-responsive reporter gene assay in SHH-LIGHT2 cells. (b) Influence of Rhonin on the expression of Alpl. C3H10T1/2 cells were treated with 1.5 µM purmorphamine and the compounds for 96 h prior to RT-qPCR to detect Alpl mRNA levels. Data were normalzed to Gapdh and Ap3d1 gene levels and are mean values (n = 3) ± SD. (c) Detection of cilia in NIH/3T3 cells. NIH/3T3 cells were cultured in serum reduced (0.5 % FCS) medium for 24 h to induce cilia formation, followed by a pre-treatment of cells with different concentrations of 7l or Vismodegib or DMSO as a control in serum reduced medium. After another 24h cells were treated with 2 µM purmorphamine or DMSO as a control and with different concentrations of 7l, or Vismodegib or DMSO as a control for 24 h. […]
cilia were stained with an antibody against acetylated tubulin. SMO was marked with an anti-SMO antibody and DAPI was used to stain the nuclei. For quantification of cilia, at least 100 cilia per condition and biological replicate were analyzed for the intensity of anti-acetylated tubulin antibody staining. […] Statistical significance was evaluated using an unpaired t-test with a confidence interval of 95 % (p ≤ n.s.). […]

RHO GTPases = test: Immunoblotting of total cellular RHO GTPase levels; conditions: 10 μM, 24 h
HEK293T cells = test: Cell fractionation: distribution of RHO GTPases; conditions: 10 μM
Method: centrifugation for 20 min in 20000 x g, supernatants were collected and loaded on a Ni-NTA column (Qiagen, Hilden, Germany). The protein was eluted by passing a buffer containing 300 mM imidazole into the Ni-NTA column. The eluted solution was further purified on an analytical Superdex 75 column (10/300 GL, GE-Healthcare, Uppsala, Sweden) using 20 mM HEPES-NaOH pH 7.4, 150 mM NaCl, 3 mM DTT, 5 mM MgCl2 and 0.5% (w/v) Na-cholate as buffer system. Non-prenylated RAC1 and human RHOGDI1 were prepared from E. coli as a GST recombinant protein as described previously.6
For expression of GST-PDEδ, E. coli RosettaTM2 cells transformed with PDE6D expression plasmid (pGex4T5) were inoculated in TB medium containing 100 μg/ml ampicillin and 30 μg/ml chloramphenicol to a total volume of 10 L. The protein expression in E. coli was induced with 0.2 mM IPTG at OD600 = 1.33. Cells were cultivated overnight at 18 ° C with shaking.
Cells then were pelleted by centrifugation at 4000xg for 20 min at 4 ° C and stored at -20 ° C. […]
NIH/3T3 cells were seeded in a 96 plate (10,000 cell per well/ plate name: Essen Bioscience NO 4379). […] Cell migration was monitored using IncuCyte ZOOM for a period of 48 h. The images were analyzed by the Incucyte Scratch Wound Analysis Software. […]

## COC(=O)C1(C(CC(=O)c2cccnc2)c2ccccc2)N=C(c2ccc(Br)cc2)C2C(=O)N(C)C(=O)C21 (stereo not drawn) [7l]
NIH/3T3 cells
  Cilia formation (in words): cilia formation was not affected
RHO GTPases
  Total levels of the three RHO GTPases (in words): did not alter the total levels
HEK293T cells
  Subcellular localization of membrane-bound RHO GTPases (in words): from the plasma membrane to the endoplasmic reticulum (ER) membrane
